# Literature values in patent US20200206380A1, “METHOD OF PRODUCING AND PROVIDING AN ANTIMICROBIAL AGENT THAT EXERTS AN EXTENDED RESIDUAL EFFECT” (Dabney Patents, L.L.C., priority 2018, published 2020).
# Read-outs that look alike come from different tables or passages of the source.
# Tested on: bacteria
# Conditions: exposed for 20 seconds
compound,measurement,setting,value
OO [hydrogen peroxide],% of bacteria killed,hydrogen peroxide used alone,30%
same,% of bacteria killed,in combination with radiation of 360 nm to 500 nm,≥ 96%
